# Results reported in ChEMBL document CHEMBL1143762, “CP5484, a novel quaternary carbapenem with potent anti-MRSA activity and reduced toxicity” (Bioorg Med Chem, 2007).
# Assays:
# Staphylococcus aureus [1] = assay: Antibacterial activity against Staphylococcus aureus 209P JC1; type: functional
# Staphylococcus aureus [2] = assay: Antibacterial activity against methicillin-resistant Staphylococcus aureus M126; type: functional
# Staphylococcus aureus [3] = assay: Antibacterial activity against carbapenem-resistant Staphylococcus aureus M126 HR; type: functional
# Mus musculus = assay: Acute toxicity in iv dosed ICR mouse assessed as mortality after 24 hrs; type: organism-based; conditions: in vivo
# Staphylococcus aureus [4] = assay: Protective effect against methicillin-resistant Staphylococcus aureus MF126 systemic infection in ICR mouse dosed sc twice a day; type: functional
# Staphylococcus aureus [5] = assay: Antibacterial activity against methicillin-resistant Staphylococcus aureus MF126; type: functional
# [6] = Total clearance in mouse at 20 mg/kg, iv administered with 10 mg/kg cilastatin; type: ADME, organism-based; conditions: in vivo
# Haemophilus influenzae = assay: Antibacterial activity against beta lactamase positive amoxicillin/clavulanic acid-resistant Haemophilus influenzae PRC44; type: functional
# [7] = Half life in mouse at 20 mg/kg, iv administered with 10 mg/kg cilastatin; type: ADME, organism-based; conditions: in vivo
# Staphylococcus aureus [8] = assay: Antibacterial activity against methicillin-resistant Staphylococcus aureus; type: functional
# [9] = Urinary excretion of compound in mouse at 20 mg/kg, iv administered with 10 mg/kg cilastatin; type: ADME, organism-based; conditions: urine, read-out: Activity
# Moraxella catarrhalis = assay: Antibacterial activity against Moraxella catarrhalis W-0500; type: functional
# Pseudomonas aeruginosa = assay: Antibacterial activity against Pseudomonas aeruginosa PAO1; type: functional
# Klebsiella pneumoniae = assay: Antibacterial activity against Klebsiella pneumoniae PCI602; type: functional
# Serum [10] = assay: Protein binding in mouse serum by equilibrium dialysis method; type: ADME, cell-free
# Serum [11] = assay: Protein binding in human serum by equilibrium dialysis method; type: ADME, cell-free
# Staphylococcus aureus [12] = assay: Antibacterial activity against penicillin-resistant Staphylococcus aureus PRC9; type: functional
# [13] = Volume of distribution at steady state in mouse at 20 mg/kg, iv administered with 10 mg/kg cilastatin; type: ADME, organism-based; conditions: in vivo, read-out: Vss
# [14] = AUC (0-infinity) in mouse at 20 mg/kg, iv administered with 10 mg/kg cilastatin; type: ADME, organism-based; design: dose 20 mg/kg, route intravenous, time infinity; conditions: plasma
# Escherichia coli = assay: Antibacterial activity against Escherichia coli NIHJ JC2; type: functional
Structure (SMILES),MIC (Staphylococcus aureus [1]) [µg/mL],MIC (Staphylococcus aureus [2]) [µg/mL],MIC (Staphylococcus aureus [3]) [µg/mL],MLD (Mus musculus) [mg/kg],further results
CSc1c2sc(C3=C(C(=O)[O-])N4C(=O)[C@H]([C@@H](C)O)[C@H]4[C@H]3C)cn2c[n+]1CCSCCN,< 0.006,0.39,1.56,,
CSc1c2sc(C3=C(C(=O)[O-])N4C(=O)[C@H]([C@@H](C)O)[C@H]4[C@H]3C)cn2c[n+]1[C@@H]1CN[C@H](CO)C1,< 0.006,0.78,3.13,,
CSc1c2sc(C3=C(C(=O)[O-])N4C(=O)[C@H]([C@@H](C)O)[C@H]4[C@H]3C)cn2c[n+]1Cc1cccc(CSC(=N)N)c1,< 0.006,0.39,0.78,250,
CSc1c2sc(C3=C(C(=O)[O-])N4C(=O)[C@H]([C@@H](C)O)[C@H]4[C@H]3C)cn2c[n+]1CCN,< 0.006,0.78,3.13,500,
CSc1c2sc(C3=C(C(=O)[O-])N4C(=O)[C@H]([C@@H](C)O)[C@H]4[C@H]3C)cn2c[n+]1[C@@H]1CN[C@H](C(=O)O)C1,0.025,3.13,6.25,,
CSc1c2sc(C3=C(C(=O)[O-])N4C(=O)[C@H]([C@@H](C)O)[C@H]4[C@H]3C)cn2c[n+]1[C@H]1CCNC1,< 0.006,0.78,1.56,500,
CSc1c2sc(C3=C(C(=O)[O-])N4C(=O)[C@H]([C@@H](C)O)[C@H]4[C@H]3C)cn2c[n+]1CC(N)=O,< 0.006,1.56,3.13,,
CSc1c2sc(C3=C(C(=O)[O-])N4C(=O)[C@H]([C@@H](C)O)[C@H]4[C@H]3C)cn2c[n+]1C[C@H](O)CN,< 0.006,0.78,1.56,> 500,ED50 (Staphylococcus aureus [4]): 0.039 mg; MIC (Staphylococcus aureus [5]): 1.56 µg/mL; clearance [6]: 26.8 mL/min/kg; MIC (Haemophilus influenzae): 0.78 µg/mL; half-life [7]: 13.4 min; MIC50 (Staphylococcus aureus [8]): 0.78 µg/mL; MIC90 (Staphylococcus aureus [8]): 1.56 µg/mL; dose excreted [9]: 41.9%; MIC (Moraxella catarrhalis): 0.05 µg/mL; MIC (Pseudomonas aeruginosa): 6.25 µg/mL; MIC (Klebsiella pneumoniae): 0.1 µg/mL; Activity (Serum [10]): 16%; Activity (Serum [11]): 12.2%; MIC (Staphylococcus aureus [12]): 0.05 µg/mL; Vd [13]: 0.34 L/kg; AUC(0-inf) [14]: 12600 ng·h/mL; MIC (Escherichia coli): 0.05 µg/mL
CSc1c2sc(C3=C(C(=O)[O-])N4C(=O)[C@H]([C@@H](C)O)[C@H]4[C@H]3C)cn2c[n+]1CCCN,< 0.006,0.78,1.56,250,
CSc1c2sc(C3=C(C(=O)[O-])N4C(=O)[C@H]([C@@H](C)O)[C@H]4[C@H]3C)cn2c[n+]1CCCNC=N,< 0.006,0.78,3.13,,
CSc1c2sc(C3=C(C(=O)[O-])N4C(=O)[C@H]([C@@H](C)O)[C@H]4[C@H]3C)cn2c[n+]1C1CCNCC1,0.013,1.56,3.13,,
CN[C@H](CC(C)C)C(=O)N[C@H]1C(=O)N[C@@H](CC(N)=O)C(=O)N[C@H]2C(=O)N[C@H]3C(=O)N[C@H](C(=O)N[C@H](C(=O)O)c4cc(O)cc(O)c4-c4cc3ccc4O)[C@H](O)c3ccc(c(Cl)c3)Oc3cc2cc(c3O[C@@H]2O[C@H](CO)[C@@H](O)[C@H](O)[C@H]2O[C@H]2C[C@](C)(N)[C@H](O)[C@H](C)O2)Oc2ccc(cc2Cl)[C@H]1O [VANCOMYCIN],0.78,1.56,1.56,,ED50 (Staphylococcus aureus [4]): 0.18 mg; MIC (Staphylococcus aureus [5]): 0.78 µg/mL; MIC50 (Staphylococcus aureus [8]): 1.56 µg/mL; MIC90 (Staphylococcus aureus [8]): 1.56 µg/mL
CSc1c2sc(C3=C(C(=O)[O-])N4C(=O)[C@H]([C@@H](C)O)[C@H]4[C@H]3C)cn2c[n+]1C[C@@H](CN)OCF,< 0.006,0.78,3.13,500,
CSc1c2sc(C3=C(C(=O)[O-])N4C(=O)[C@H]([C@@H](C)O)[C@H]4[C@H]3C)cn2c[n+]1CCCSC(=N)N,< 0.006,0.39,1.56,250,
CSc1c2sc(C3=C(C(=O)[O-])N4C(=O)[C@H]([C@@H](C)O)[C@H]4[C@H]3C)cn2c[n+]1[C@H]1CCN(C(C)=N)C1,< 0.006,1.56,3.13,,
CO[C@H](CN)C[n+]1cn2cc(C3=C(C(=O)[O-])N4C(=O)[C@H]([C@@H](C)O)[C@H]4[C@H]3C)sc2c1SC,< 0.006,0.78,3.13,> 500,
CSc1c2sc(C3=C(C(=O)[O-])N4C(=O)[C@H]([C@@H](C)O)[C@H]4[C@H]3C)cn2c[n+]1CCCNC(C)=N,< 0.006,0.78,3.13,,
CSc1c2sc(C3=C(C(=O)[O-])N4C(=O)[C@H]([C@@H](C)O)[C@H]4[C@H]3C)cn2c[n+]1[C@@H]1CN[C@H](C(=O)N(C)C)C1,0.025,3.13,6.25,,
CSc1c2sc(C3=C(C(=O)[O-])N4C(=O)[C@H]([C@@H](C)O)[C@H]4[C@H]3C)cn2c[n+]1C[C@@H]1CCCN1,< 0.006,0.78,3.13,,
CSc1c2sc(C3=C(C(=O)[O-])N4C(=O)[C@H]([C@@H](C)O)[C@H]4[C@H]3C)cn2c[n+]1C[C@H](C)CN,< 0.006,0.78,1.56,500,
CSc1c2sc(C3=C(C(=O)[O-])N4C(=O)[C@H]([C@@H](C)O)[C@H]4[C@H]3C)cn2c[n+]1CCCCCCN,< 0.006,0.78,1.56,250,
COC(=O)[C@@H]1C[C@H]([n+]2cn3cc(C4=C(C(=O)[O-])N5C(=O)[C@H]([C@@H](C)O)[C@H]5[C@H]4C)sc3c2SC)CN1,0.013,1.56,6.25,,
CSc1c2sc(C3=C(C(=O)[O-])N4C(=O)[C@H]([C@@H](C)O)[C@H]4[C@H]3C)cn2c[n+]1CCS(=O)(=O)CCN,< 0.006,0.78,3.13,> 500,
C[C@@H](O)[C@H]1C(=O)N2C(C(=O)O)=C(SCCNC=N)C[C@H]12 [IMIPENEM ANHYDROUS],0.013,25,100,,MIC (Haemophilus influenzae): 3.13 µg/mL; MIC (Moraxella catarrhalis): 0.05 µg/mL; MIC (Pseudomonas aeruginosa): 1.56 µg/mL; MIC (Klebsiella pneumoniae): 0.39 µg/mL; MIC (Staphylococcus aureus [12]): 0.39 µg/mL; MIC (Escherichia coli): 0.1 µg/mL
CSc1c2sc(C3=C(C(=O)[O-])N4C(=O)[C@H]([C@@H](C)O)[C@H]4[C@H]3C)cn2c[n+]1CCCCN,< 0.006,0.78,1.56,,
